A short description of the data set: Solubility measurement in diluting solvents. The format is physicochemical. The conditions noted are these: 25° C., 100 rpm, 1 hour, 0.5 g of compound added. How it is done: 0.5 g of each compound according to Synthesis Examples 1 to 3 was respectively added to diluting solvents (MeOH, CH2Cl2, cyclohexanone), each solution was stirred with a rotary mixer (Mixrotar VMR-5, Iuchi Seieido Co., Ltd.) at 25° C. and 100 rpm for 1 hour, and then, the dissolution state of each compound (the amount of the compound dissolved in the solvents) was examined, and the results are provided in Table 1.

These results are taken from US10031417B2, “Compound, colorant including the same, positive photosensitive resin composition including the same and color filter” (SAMSUNG SDI CO., LTD., priority 2016, dated 2018).

Where only a bound is given, the exact number is not on record here.

`CCN(CCOC(=O)NC(C)(C)C)c1ccc2c(-c3ccccc3S(=O)(=O)[O-])c3ccc(=[N+](CC)CC)cc-3oc2c1` [Chemical Formula 5]: the “Amount of dissolved compound” value by setting is: (CH2Cl2) greater than 7% wt %; (Cyclohexanone) 3% wt %; (MeOH) greater than 7% wt %.
Turning to `CCN(CCOC(=O)NC1CCCCC1)c1ccc2c(-c3ccccc3S(=O)(=O)[O-])c3cc/c(=[N+](/CC)CCOC(=O)NC4CCCCC4)cc-3oc2c1` [Chemical Formula 9], the “Amount of dissolved compound” value is greater than 10% wt % (CH2Cl2), 5% wt % (Cyclohexanone) and greater than 10% wt % (MeOH).
For `CCN(CCOC(=O)NC1CCCCC1)c1ccc2c(-c3ccccc3S(=O)(=O)[O-])c3ccc(=[N+](CC)CC)cc-3oc2c1` [Chemical Formula 6], the “Amount of dissolved compound” value is reported as greater than 7% wt % (CH2Cl2), 3% wt % (Cyclohexanone) and greater than 7% wt % (MeOH).
Take `CCN(CCOC(=O)Nc1ccccc1)c1ccc2c(-c3ccccc3S(=O)(=O)[O-])c3cc/c(=[N+](/CC)CCOC(=O)Nc4ccccc4)cc-3oc2c1` [Chemical Formula 10]: the “Amount of dissolved compound” value is, setting by setting: (CH2Cl2) greater than 10% wt %; (Cyclohexanone) 3% wt %; (MeOH) greater than 10% wt %.
For `CCN(CCOC(=O)Nc1ccccc1)c1ccc2c(-c3ccccc3S(=O)(=O)[O-])c3ccc(=[N+](CC)CC)cc-3oc2c1` [Chemical Formula 7], the “Amount of dissolved compound” value runs as follows: (CH2Cl2) greater than 7% wt %; (Cyclohexanone) 2% wt %; (MeOH) greater than 7% wt %.
Consider `CCN(CCOC(=O)NC(C)(C)C)c1ccc2c(-c3ccccc3S(=O)(=O)[O-])c3cc/c(=[N+](/CC)CCOC(=O)NC(C)(C)C)cc-3oc2c1` [Chemical Formula 8], for which the “Amount of dissolved compound” value (CH2Cl2) is recorded as greater than 10% wt %, the “Amount of dissolved compound” value (Cyclohexanone) is recorded as 5% wt % and the “Amount of dissolved compound” value (MeOH) is greater than 10% wt %.
